The values that follow come from ChEMBL document CHEMBL2412999, “Anticonvulsant properties of histamine H3 receptor ligands belonging to N-substituted carbamates of imidazopropanol” (Bioorg Med Chem Lett, 2013).

Active and inactive are the calls of the source. The rule behind the calls is not given here. A value given as a limit tells only on which side of the number the result lay.

One experiment has as its target Histamine H3 receptor (Homo sapiens, UniProt Q9Y5N1). Put plainly: Displacement of [125I]iodoproxyfan from human histamine H3 receptor expressed in CHO-K1 cells. The format is cell-based. In general terms: Displacement assays read how much labelled ligand stays bound in the presence of the test substance.
The target of the next experiment is Histamine H4 receptor (Homo sapiens, UniProt Q9H3N8). Put plainly: Displacement of [3H]histamine from human histamine H4 receptor expressed in Sf9 cells co-expressing Gai2 and Gb1c2 subunit.
Histamine H4 receptor, sequence (Q9H3N8 whole entry): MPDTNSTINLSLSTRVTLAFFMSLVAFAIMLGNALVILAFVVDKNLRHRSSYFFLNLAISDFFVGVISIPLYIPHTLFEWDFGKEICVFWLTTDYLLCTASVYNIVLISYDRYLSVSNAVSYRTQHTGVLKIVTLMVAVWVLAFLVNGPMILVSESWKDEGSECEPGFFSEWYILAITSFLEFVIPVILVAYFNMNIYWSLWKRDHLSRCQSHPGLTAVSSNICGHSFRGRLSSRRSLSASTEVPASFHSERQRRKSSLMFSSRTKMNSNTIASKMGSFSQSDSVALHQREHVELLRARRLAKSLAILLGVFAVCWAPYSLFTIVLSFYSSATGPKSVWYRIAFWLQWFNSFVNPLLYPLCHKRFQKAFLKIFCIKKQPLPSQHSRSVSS
In experiment [1] the target is Histamine H1 receptor (Cavia porcellus) (UniProt P31389). The experiment in a line: Antagonist activity at histamine H1 receptor in guinea pig ileum. The experiment is classed as tissue-based.
Histamine H1 receptor (Cavia porcellus), sequence (P31389 whole entry): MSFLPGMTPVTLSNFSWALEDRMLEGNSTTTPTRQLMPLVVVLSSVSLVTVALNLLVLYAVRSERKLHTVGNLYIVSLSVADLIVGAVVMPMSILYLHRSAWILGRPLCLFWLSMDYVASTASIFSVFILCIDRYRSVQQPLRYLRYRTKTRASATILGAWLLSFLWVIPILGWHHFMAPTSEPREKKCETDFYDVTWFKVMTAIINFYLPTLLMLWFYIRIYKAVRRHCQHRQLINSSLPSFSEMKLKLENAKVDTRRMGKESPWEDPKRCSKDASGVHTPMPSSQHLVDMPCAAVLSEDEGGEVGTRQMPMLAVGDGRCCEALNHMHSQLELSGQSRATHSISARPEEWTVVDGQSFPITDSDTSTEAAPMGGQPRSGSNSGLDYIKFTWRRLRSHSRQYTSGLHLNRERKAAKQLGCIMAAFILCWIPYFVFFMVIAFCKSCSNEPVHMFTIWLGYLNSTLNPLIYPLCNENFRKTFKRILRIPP
The target of experiment [2] is Histamine H2 receptor (Cavia porcellus) (UniProt P47747). The experiment in a line: Antagonist activity at histamine H2 receptor in guinea pig atrium. Conditions: Cardiac atrium.
Histamine H2 receptor (Cavia porcellus), sequence (P47747 whole entry): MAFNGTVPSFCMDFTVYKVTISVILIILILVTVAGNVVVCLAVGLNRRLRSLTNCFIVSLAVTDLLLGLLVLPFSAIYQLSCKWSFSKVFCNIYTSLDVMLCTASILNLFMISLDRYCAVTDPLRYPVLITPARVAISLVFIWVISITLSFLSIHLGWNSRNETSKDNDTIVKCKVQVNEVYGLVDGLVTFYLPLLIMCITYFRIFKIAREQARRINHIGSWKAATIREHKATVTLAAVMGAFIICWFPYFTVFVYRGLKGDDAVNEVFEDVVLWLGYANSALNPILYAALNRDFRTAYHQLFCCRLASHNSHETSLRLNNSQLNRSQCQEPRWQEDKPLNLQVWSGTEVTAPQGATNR
The test system of another experiment is Mus musculus. Put plainly: In vivo inhibition of histamine H3 receptor in po dosed mouse assessed as Nt-methylhistamine level in brain. The experiment is classed as functional.
In experiment [3] the test system is Rattus norvegicus. The experiment in a line: Anticonvulsant activity in Wistar rat assessed as protection against maximum electric shock-induced tonic hind limb extension at 10 mg/kg, ip. The experiment is classed as functional, organism-based. Further details: dose 10 mg/kg. Conditions: Hindlimb.
In experiment [4] the test system is Rattus norvegicus. Put plainly: Anticonvulsant activity in Wistar rat assessed as protection against maximum electric shock-induced tonic hind limb extension at 10 mg/kg, ip in presence of histamine H1R antagonist pyrilamine. Conditions: Hindlimb. The experiment is classed as functional, organism-based. Further details: dose 10 mg/kg.
The test system of experiment [5] is Rattus norvegicus. The experiment in a line: Anticonvulsant activity in Wistar rat assessed as protection against maximum electric shock-induced tonic hind limb extension at 10 mg/kg, ip in presence of histamine H3R agonist RAMH. Also on record: dose 10 mg/kg. The experiment is classed as functional, organism-based. Conditions: Hindlimb.
The subject of experiment [6] is Rattus norvegicus. Put plainly: Anticonvulsant activity in Wistar rat assessed as protection against pentylenetetrazole-induced seizure at 10 mg/kg, ip after 5 to 10 mins. The experiment is classed as functional, organism-based. Also on record: dose 10 mg/kg.
Experiment [7] deals with Rattus norvegicus. The experiment in a line: Anticonvulsant activity in Wistar rat assessed as protection against maximum electric shock-induced tonic hind limb extension at 15 mg/kg, ip. The experiment is classed as functional, organism-based. Further details: dose 15 mg/kg. The following applies: Hindlimb.
Experiment [8] has as its system Rattus norvegicus. The experiment in a line: Anticonvulsant activity in ip dosed Wistar rat assessed as protection against maximum electric shock-induced tonic hind limb extension. The experiment is classed as functional, organism-based. The following applies: Hindlimb.
For experiment [9], the system named is Rattus norvegicus. The experiment in a line: Anticonvulsant activity in Wistar rat assessed as protection against maximum electric shock-induced tonic hind limb extension at 5 mg/kg, ip. The experiment is classed as functional, organism-based. Also on record: dose 5 mg/kg. Conditions: Hindlimb.
In experiment [10] the test system is Rattus norvegicus. The experiment in a line: Anticonvulsant activity in Wistar rat assessed as protection against maximum electric shock-induced tonic hind limb extension at 10 to 15 mg/kg, ip. The following applies: Hindlimb. The experiment is classed as functional, organism-based.
Experiment [11] concerns Rattus norvegicus. The experiment in a line: Anticonvulsant activity in Wistar rat assessed as protection against pentylenetetrazole-induced seizure at 10 mg/kg, ip after 30 mins. Further details: dose 10 mg/kg. The format is functional, organism-based.

Histamine H3 receptor, sequence (Q9Y5N1 whole entry): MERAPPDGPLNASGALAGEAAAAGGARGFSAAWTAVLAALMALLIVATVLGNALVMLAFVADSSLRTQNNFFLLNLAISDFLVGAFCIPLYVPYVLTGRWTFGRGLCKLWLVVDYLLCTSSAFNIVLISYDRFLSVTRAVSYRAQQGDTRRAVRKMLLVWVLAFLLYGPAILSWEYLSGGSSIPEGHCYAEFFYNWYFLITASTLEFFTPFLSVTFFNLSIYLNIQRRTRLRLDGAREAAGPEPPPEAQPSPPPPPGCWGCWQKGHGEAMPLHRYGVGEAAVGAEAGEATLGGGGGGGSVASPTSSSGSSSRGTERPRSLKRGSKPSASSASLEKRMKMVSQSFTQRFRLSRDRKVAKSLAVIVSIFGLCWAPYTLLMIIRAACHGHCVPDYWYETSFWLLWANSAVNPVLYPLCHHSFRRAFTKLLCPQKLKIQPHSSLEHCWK

By Ki is commonly meant the dissociation constant of the complex between target and ligand, obtained from inhibition or displacement. Read a high Ki as lower affinity. As usually defined, the pKb is the negative decadic logarithm of the Kb, by convention in mol/L. Regarding `O=C(NCCC1CCCCC1)OCCCc1c[nH]cn1`, the results for the Ki at Histamine H3 receptor and on Histamine H4 receptor were 251 nM and 1.55 µM, respectively. Besides, the pKb came to 3.96 in experiment [1] and 4.49 in experiment [2].

On to `CC/C=C/CCNC(=O)OCCCc1c[nH]cn1`, for which the Ki on Histamine H3 receptor was 257 nM; on Histamine H4 receptor, 13.2 µM.

The term ED50 denotes the dose at which the effect has come halfway, by size or by number of responders. Consider `O=C(NCCCCOc1ccccc1)OCCCc1c[nH]cn1`, for which the Ki on Histamine H3 receptor is 1050 nM; on Histamine H4 receptor it was above 100 µM. For the same molecule, in the experiment on Mus musculus, the ED50 was found to be 5.8 mg/kg. Also, the pKb was found to be 4.27 in [1] and 4.78 in experiment [2].

Take `CCC/C=C/CNC(=O)OCCCc1c[nH]cn1`: the outcome in the experiment with Rattus norvegicus [3] was Active. Also, the Ki on Histamine H3 receptor was 240 nM; at Histamine H4 receptor, 7.08 µM.

With `O=C(NCCC1CC1)OCCCc1c[nH]cn1`, the Ki is 170 nM on Histamine H3 receptor and 1.55 µM at Histamine H4 receptor. The pKb came out at 3.8 in experiment [1] and 3.5 in [2].

Regarding `C=CCCCNC(=O)OCCCc1c[nH]cn1`, the result in the experiment on Rattus norvegicus [4] and in the experiment with Rattus norvegicus [5] was inactive. In addition, the result in the experiment on Rattus norvegicus [6], with Rattus norvegicus [3], in the experiment with Rattus norvegicus [7] and with Rattus norvegicus [9] was Active. Also, the values for the Ki at Histamine H3 receptor and at Histamine H4 receptor were 141 nM and 41.7 µM, respectively. Moreover, the Activity result with Rattus norvegicus [8] is “Dose-dependent effect”. Moreover, the pKb in [1] turned out to be 3.9; in [2] it was 3.6.

Consider `O=C(NCCCCC1CCCCC1)OCCCc1c[nH]cn1`, for which the outcome with Rattus norvegicus [10] and in the experiment on Rattus norvegicus [3] was Active. The Ki at Histamine H3 receptor is 1950 nM; on Histamine H4 receptor, 5.01 µM. The pKb in experiment [1] is below 5.52; in experiment [2], 4.61.

Turning to `C[C@@H](N)Cc1c[nH]cn1`, the outcome in the experiment on Rattus norvegicus [3] was inactive.

For the molecule `O=C(NCCCOc1ccccc1)OCCCc1c[nH]cn1`, in the experiment with Rattus norvegicus [3], the result was Active. For the same molecule, the figures for the Ki on Histamine H3 receptor and at Histamine H4 receptor were 1290 nM and above 100 µM, respectively. Further, in the experiment with Mus musculus, the ED50 is 4.1 mg/kg. Also, the figures for the pKb in [1] and in [2] were 4.34 and 4.26, respectively.

Consider `CCC(C)CCNC(=O)OCCCc1c[nH]cn1` (stereo not drawn), for which the outcome in the experiment with Rattus norvegicus [10] and in the experiment with Rattus norvegicus [3] was Active. For the same molecule, the Ki at Histamine H3 receptor was 129 nM; on Histamine H4 receptor, 1.23 µM. In the experiment on Mus musculus, the ED50 came out at 2 mg/kg.

Take `S=C(NC1CCCCC1)N1CCC(c2cnc[nH]2)CC1`: the result in the experiment with Rattus norvegicus [3] was Active. In addition, the pKb in experiment [1] and in experiment [2] was below 5 in each case.

Consider `C=CCCNC(=O)OCCCc1c[nH]cn1`, for which the result in the experiment on Rattus norvegicus [10] and with Rattus norvegicus [3] was Active. This molecule also gave a Ki on Histamine H4 receptor of 3.8 µM. Further, the pKb in [1] and in experiment [2] was below 4 each time.

Turning to `O=C1NC(=O)C(c2ccccc2)(c2ccccc2)N1`, the result with Rattus norvegicus [10], with Rattus norvegicus [3] and with Rattus norvegicus [11] was Active. In addition, the outcome with Rattus norvegicus [9] was inactive.

Turning to `O=C(NCCCC1CCCCC1)OCCCc1c[nH]cn1`, the Ki is 851 nM at Histamine H3 receptor and 4.47 µM on Histamine H4 receptor. In addition, the pKb in experiment [1] was 4.97; in experiment [2] it was 4.94.

For `O=C(NCCOc1ccccc1Cl)OCCCc1c[nH]cn1`, the outcome in the experiment with Rattus norvegicus [3] was Active. Also, the Ki was 708 nM on Histamine H3 receptor and 16.2 µM on Histamine H4 receptor. For the same molecule, the ED50 with Mus musculus stood at 2.2 mg/kg.

Consider `COc1ccc(CN(CCN(C)C)c2ccccn2)cc1`, for which the result with Rattus norvegicus [3] was inactive.

With `O=C(NCCc1ccc(Cl)cc1)OCCCc1c[nH]cn1`, the Ki at Histamine H3 receptor was 427 nM; on Histamine H4 receptor it was 6.76 µM. For the same molecule, the ED50 in the experiment on Mus musculus is 3.1 mg/kg. The results for the pKb in [1] and in experiment [2] were 4.82 and 4.41, respectively.
